Tested on: human normal peripheral blood monocyte
Assay: Influence of the artificially synthesized peptide on normal cell genes: coculture 7 hr, DNA chip system (Clontech), about 55000 human genes (Table 4)
Format: cell-based
Experimental: (a) The peptide obtained in Example 3 was added to a human normal peripheral blood monocyte culture system (10 to 100 μg peptide/1×10^6 to 1×10^7 monocytes), and they were cocultured for 7 hr. Then, mRNA was extracted from the monocytes and was applied to analysis for up-regulation and down-regulation in respect to about 55000 human genes by using DNA chip system (Clontech).

[1] = Enhanced Gene, Immune System Gene, Gene No. 21607, colony stimulating factor 1 (macrophage) (CSF1), transcript variant 1
[2] = Enhanced Gene, Immune System Gene, Gene No. 22100, IL5-CI0001-181000-178-f03 CI0001 Homo sapiens cDNA
[3] = Enhanced Gene, Immune System Gene, Gene No. 22254, interleukin 4 (IL4), transcript variant 1
[4] = Enhanced Gene, Immune System Gene, Gene No. 25767, tumor necrosis factor (TNF superfamily, member 2) (TNF)
[5] = Enhanced Gene, Immune System Gene, Gene No. 28615, IL3-UT0117-080301-496-D07 UT0117 Homo sapiens cDNA
[6] = Enhanced Gene, Immune System Gene, Gene No. 29703, chemokine (C—X—C motif) ligand 9 (CXCL9)
[7] = Enhanced Gene, Immune System Gene, Gene No. 45170, transforming growth factor beta 1 induced transcript 1 (TGFB1I1)
[8] = Enhanced Gene, Immune System Gene, Gene No. 51904, interleukin 1 family, member 8 (eta) (IL1F8), transcript variant 1
[9] = Enhanced Gene, Oncogene, Gene No. 2183, neuro-oncological ventral antigen 1 (NOVA1), transcript variant 1
[10] = Enhanced Gene, Oncogene, Gene No. 3642, RAB2, member RAS oncogene family (RAB2)
[11] = Enhanced Gene, Oncogene, Gene No. 3858, preferentially expressed antigen in melanoma (PRAME), transcript variant 3
[12] = Enhanced Gene, Oncogene, Gene No. 4210, RAS-like, family 11, member A (RASL11A)
[13] = Enhanced Gene, Oncogene, Gene No. 6231, breast carcinoma amplified sequence 1 (BCAS1)
[14] = Enhanced Gene, Oncogene, Gene No. 6329, mutated in colorectal cancers (MCC)
[15] = Enhanced Gene, Oncogene, Gene No. 7394, HELA CELLS COT 25-NORMALIZED cDNA clone CS0DK007YM05 3-PRIME
[16] = Enhanced Gene, Oncogene, Gene No. 8431, Ras-associated protein Rap1 (RBJ)
[17] = Enhanced Gene, Oncogene, Gene No. 8440, mab-21-like 2 (C elegans) (MAB21L2)
[18] = Enhanced Gene, Oncogene, Gene No. 14195, B-cell translocation gene 4 (BTG4)
[19] = Enhanced Gene, Oncogene, Gene No. 18829, v-myc myelocytomatosis viral related oncogene, neuroblastoma derived (avian) (MYCN)
[20] = Enhanced Gene, Oncogene, Gene No. 21713, zn87b11y5 Stratagene lung carcinoma 937218 cDNA clone IMAGE: 565149 5′
[21] = Enhanced Gene, Oncogene, Gene No. 22388, zb91f05s1 Soares_parathyroid_tumor NbHPA cDNA clone IMAGE: 320193 3′
[22] = Enhanced Gene, Oncogene, Gene No. 22675, endogenous retroviral family W, env(C7), member 1 (syncytin) (ERVWE1), mRNA
[23] = Enhanced Gene, Oncogene, Gene No. 24910, platelet-derived growth factor beta polypeptide (simian sarcoma viral (v-sis) oncogene homolog) (PDGFB), transcript variant 2
[24] = Enhanced Gene, Oncogene, Gene No. 29317, T-cell leukemia/lymphoma 6 (TCL6), transcript variant TCL6a1
[25] = Enhanced Gene, Oncogene, Gene No. 32050, disrupted in renal carcinoma 1 (DIRC1)
[26] = Enhanced Gene, Oncogene, Gene No. 34854, NEUROBLASTOMA COT 25-NORMALIZED cDNA clone CS0DC018YE24 3-PRIME
[27] = Enhanced Gene, Oncogene, Gene No. 34979, yu38e06r1 Soares ovary tumor NbHOT cDNA clone IMAGE: 236098 5′
[28] = Enhanced Gene, Oncogene, Gene No. 36631, RAB43, member RAS oncogene family (RAB43), mRNA
[29] = Enhanced Gene, Oncogene, Gene No. 37781, NEUROBLASTOMA COT 25-NORMALIZED cDNA clone CS0DC011YD03 5-PRIME
[30] = Enhanced Gene, Oncogene, Gene No. 38566, RAS protein activator like 2, mRNA (cDNA clone IMAGE: 5399841), with apparent retained intron
[31] = Enhanced Gene, Oncogene, Gene No. 46997, clone N11 NTera2D1 teratocarcinoma mRNA
[32] = Suppressed Gene, Cancer Suppressing Gene, Gene No. 8280, brain specific protein (CGI-38)
[33] = Suppressed Gene, Cancer Suppressing Gene, Gene No. 11261, breast cancer metastasis suppressor 1 (BRMS1)
[34] = Suppressed Gene, Cancer Suppressing Gene, Gene No. 11438, serologically defined breast cancer antigen 84 (SDBCAG84), transcript variant 1
[35] = Suppressed Gene, Cancer Suppressing Gene, Gene No. 30909, tumor rejection antigen (gp96) 1 (TRA1)
[36] = Suppressed Gene, Cancer Suppressing Gene, Gene No. 35687, heat shock protein 75 (TRAP1)
[37] = Suppressed Gene, Cancer Suppressing Gene, Gene No. 36334, heat shock 70 kDa protein 14 (HSPA14)
[38] = Suppressed Gene, Cancer Suppressing Gene, Gene No. 37600, AHA1, activator of heat shock 90 kDa protein ATPase homolog 1 (yeast) (AHSA1)
[39] = Suppressed Gene, Cancer Suppressing Gene, Gene No. 50395, Ras suppressor protein 1 (RSU1), transcript variant 1
[40] = Suppressed Gene, Cancer Suppressing Gene, Gene No. 52111, leukemia cell normalized cDNA library cDNA clone LEU1757_26_C2
[41] = Suppressed Gene, Immune System Gene, Gene No. 4403, programmed cell death 4 (neoplastic transformation inhibitor) (PDCD4), transcript variant 2
[42] = Suppressed Gene, Immune System Gene, Gene No. 4899, interferon (alpha, beta and omega) receptor 2 (IFNAR2), transcript variant 1
[43] = Suppressed Gene, Immune System Gene, Gene No. 8634, perform 1 (pore forming protein) (PRF1)
[44] = Suppressed Gene, Immune System Gene, Gene No. 8922, interferon induced transmembrane protein 1 (9-27) (IFITM1)
[45] = Suppressed Gene, Immune System Gene, Gene No. 9938, interleukin 17D (IL17D)
[46] = Suppressed Gene, Immune System Gene, Gene No. 10204, interferon-related developmental regulator 1 (IFRD1)
[47] = Suppressed Gene, Immune System Gene, Gene No. 10791, HLA-B associated transcript 5 (BAT5)
[48] = Suppressed Gene, Immune System Gene, Gene No. 11236, natural killer cell group 7 sequence (NKG7), mRNA
[49] = Suppressed Gene, Immune System Gene, Gene No. 11635, thymosin, beta 4, Y-linked (TMSB4Y)

the Peptide (QPQFGRRMESK; Human squamous cell carcinoma)
Enhancement Ratio [1]: 7.233 | Expression Amount after Treatment with the Peptide [1]: 24.93 | Enhancement Ratio [2]: 1.853 | Expression Amount after Treatment with the Peptide [2]: 608.5 | Enhancement Ratio [3]: 4.547 | Expression Amount after Treatment with the Peptide [3]: 122.7 | Enhancement Ratio [4]: 37.72 | Expression Amount after Treatment with the Peptide [4]: 4927 | Enhancement Ratio [5]: 7.555 | Expression Amount after Treatment with the Peptide [5]: 20.69 | Enhancement Ratio [6]: 30.05 | Expression Amount after Treatment with the Peptide [6]: 19.83 | Enhancement Ratio (Enhanced Gene, Immune System Gene, Gene No. 30707, immunoglobulin superfamily, member 4C (IGSF4C)): 7.379 | Enhancement Ratio [7]: 2.225 | Expression Amount after Treatment with the Peptide [7]: 85.26 | Enhancement Ratio [8]: 4.932 | Expression Amount after Treatment with the Peptide [8]: 11.37 | Enhancement Ratio [9]: 2.53 | Expression Amount after Treatment with the Peptide [9]: 8.623 | Enhancement Ratio [10]: 2.032 | Expression Amount after Treatment with the Peptide [10]: 3307 | Enhancement Ratio [11]: 2.462 | Expression Amount after Treatment with the Peptide [11]: 22.62 | Enhancement Ratio [12]: 6.36 | Expression Amount after Treatment with the Peptide [12]: 393.7 | Enhancement Ratio [13]: 9.349 | Expression Amount after Treatment with the Peptide [13]: 5.453 | Enhancement Ratio [14]: 1.786 | Expression Amount after Treatment with the Peptide [14]: 67.54 | Enhancement Ratio [15]: 11.83 | Expression Amount after Treatment with the Peptide [15]: 350.3 | Enhancement Ratio [16]: 2.435 | Expression Amount after Treatment with the Peptide [16]: 18.61 | Enhancement Ratio [17]: 2.175 | Expression Amount after Treatment with the Peptide [17]: 15.71 | Enhancement Ratio [18]: 2.567 | Expression Amount after Treatment with the Peptide [18]: 7.219 | Enhancement Ratio [19]: 2.225 | Expression Amount after Treatment with the Peptide [19]: 15.32 | Enhancement Ratio [20]: 45.9 | Expression Amount after Treatment with the Peptide [20]: 7.742 | Enhancement Ratio [21]: 9.47 | Expression Amount after Treatment with the Peptide [21]: 571.2 | Enhancement Ratio [22]: 2.498 | Expression Amount after Treatment with the Peptide [22]: 204.4 | Enhancement Ratio [23]: 1.898 | Expression Amount after Treatment with the Peptide [23]: 55.05 | Enhancement Ratio [24]: 3.478 | Expression Amount after Treatment with the Peptide [24]: 10.06 | Enhancement Ratio [25]: 28.44 | Expression Amount after Treatment with the Peptide [25]: 9.806 | Enhancement Ratio [26]: 26.92 | Expression Amount after Treatment with the Peptide [26]: 1.098 | Enhancement Ratio [27]: 9.116 | Expression Amount after Treatment with the Peptide [27]: 24.17 | Enhancement Ratio [28]: 5.871 | Expression Amount after Treatment with the Peptide [28]: 417.5 | Enhancement Ratio [29]: 12.79 | Expression Amount after Treatment with the Peptide [29]: 32.41 | Enhancement Ratio [30]: 1.982 | Expression Amount after Treatment with the Peptide [30]: 14.55 | Enhancement Ratio [31]: 21.14 | Expression Amount after Treatment with the Peptide [31]: 236.2 | Expression Amount after Treatment with the Peptide [32]: 9 | Suppression Ratio [32]: 84.27 | Expression Amount after Treatment with the Peptide [33]: 6.257 | Suppression Ratio [33]: 60.59 | Expression Amount after Treatment with the Peptide [34]: 14.74 | Suppression Ratio [34]: 81.87 | Expression Amount after Treatment with the Peptide [35]: 11.47 | Suppression Ratio [35]: 86.08 | Expression Amount after Treatment with the Peptide [36]: 0.2252 | Suppression Ratio [36]: 461.4 | Expression Amount after Treatment with the Peptide [37]: 2.08 | Suppression Ratio [37]: 164.2 | Expression Amount after Treatment with the Peptide [38]: 8.429 | Suppression Ratio [38]: 116.6 | Expression Amount after Treatment with the Peptide [39]: 8.763 | Suppression Ratio [39]: 53.66 | Expression Amount after Treatment with the Peptide [40]: 13.6 | Suppression Ratio [40]: 43.65 | Expression Amount after Treatment with the Peptide [41]: 21.97 | Suppression Ratio [41]: 40.6 | Expression Amount after Treatment with the Peptide [42]: 4.5 | Suppression Ratio [42]: 119.2 | Expression Amount after Treatment with the Peptide [43]: 10.2 | Suppression Ratio [43]: 92.95 | Expression Amount after Treatment with the Peptide [44]: 110.9 | Suppression Ratio [44]: 98.91 | Expression Amount after Treatment with the Peptide [45]: 0.3 | Suppression Ratio [45]: 39.28 | Expression Amount after Treatment with the Peptide [46]: 9.714 | Suppression Ratio [46]: 71.65 | Expression Amount after Treatment with the Peptide [47]: 3.429 | Suppression Ratio [47]: 150.9 | Expression Amount after Treatment with the Peptide [48]: 65.47 | Suppression Ratio [48]: 72.38 | Expression Amount after Treatment with the Peptide [49]: 2.5 | Suppression Ratio [49]: 42.45 | Expression Amount after Treatment with the Peptide (Suppressed Gene, Immune System Gene, Gene No. 11651, implantation-associated protein (DKFZp564K142)): 12.84

— US8173788B2, “Peptide having ability to activate cancer-related gene” (priority 2005, dated 2012)
